One series concerns T-tropic HIV. In words: Phenoscreen assay: inhibition of cellular entry of HIV (luciferase-tagged test vector, target host cells). The class given is cell-based. The following applies: Human immunodeficiency virus 1, read-out: IC50 value for viral entry inhibition. The method, then: A selected set of compounds are tested for their ability to inhibit the cellular entry of T-tropic HIV. The assay for this inhibition was carried out by Monogram Biosciences, Inc. using their well established Phenoscreen™ assay. Briefly, HIV strains of interest are tagged with a luciferase indicator gene to create an appropriate test vector. The test vector is amplified through transfection and the resulting virus is incubated in the presence of target host cells where intracellular florescence activity then becomes a measure of infection. Amplified virus is exposed to target host cells in the presence of a range of test drug concentrations to determine IC50 measurements of entry inhibition. A modification of this test is further reapplied as a novel drug assay used in partnership with a number of pharmaceutical companies to test the effectiveness of novel entry inhibitors that target specific chemokines. It can used to detect activity against T-tropic, M-tropic, and dual-tropic viruses and Monogram Biosciences has a large bank of over 10,000 different virus strains to ultimately assess the range of applicability of our chemokine modulators. Certain compounds are tested to establish efficacy in a number of viral strains.

For series [1] the following is noted: in vivo; cited from earlier work.

Bounds are passed on as bounds.

Take `O=C(NCc1ccccc1)c1ccc(C(=O)NNc2ccccc2)cc1`: the IC50 with T-tropic HIV is at most 10 µM.

Take `O=C(NCc1ccc(C(=O)N(Cc2ccccc2)N2CCOCC2)cc1)c1cccs1` [A, N-(4-(benzyl(morpholino)carbamoyl)benzyl)thiophene-2-carboxamide]: the IC50 with T-tropic HIV is at most 10 µM. Take `O=C(NNc1ccc(C(F)(F)F)cc1)c1ccc(CNCc2ccccc2)cc1` [AA, 4-((benzylamino)methyl)-N′-(4-(trifluoromethyl)phenyl)benzohydrazide]: the IC50 in the series on T-tropic HIV is at most 10 µM. On to `N#Cc1ccc(NNC(=O)c2ccc(CNCc3ccccc3)cc2)cc1` [AB, 4-((benzylamino)methyl)-N′-(4-cyanophenyl)benzohydrazide], for which the IC50 with T-tropic HIV was at most 10 µM. Take `O=C(NNc1ccc(F)cc1F)c1ccc(CNCc2ccccc2)cc1` [AF, 4-((benzylamino)methyl)-N1′-(2,4-difluorophenyl)benzohydrazide]: the IC50 in the series with T-tropic HIV was at most 10 µM. On to `O=C(NNc1ccccc1)c1ccc(CNCc2ccccn2)cc1` [AL, N′-phenyl-4-((pyridin-2-ylmethylamino)methyl)benzohydrazide], for which, in the series on T-tropic HIV, the IC50 was at most 10 µM. As to `c1cc(CN2CCCNCCNCCCNCC2)ccc1CN1CCCNCCNCCCNCC1` [AMD3100], the “side effect in clinical study” value in series [1] is “cardiac-related side effect”. For the compound `O=C(NCc1ccccn1)c1ccc(C(=O)NNc2ccccc2)cc1` [AO, 4-(2-phenylhydrazinecarbonyl)-N-(pyridin-2-ylmethyl)benzamide], in the series with T-tropic HIV, the half-inhibitory concentration (IC50) is at most 10 µM. On the same count and under the same terms, then `C[C@H](NC(=O)NCc1ccc(C(=O)NNc2ccccc2)cc1)c1cccc2ccccc12` [BE, (S)-4-((3-(1-(naphthalen-1-yl)ethyl)ureido)methyl)-N′-phenylbenzohydrazide], with at most 10 µM; and `O=C(NNc1ccccc1)c1ccc(CNCc2ccccc2)cc1` [Z, 4-((benzylamino)methyl)-N′-phenylbenzohydrazide], with at most 10 µM.

By IC50 is commonly meant the concentration that gives 50% inhibition.

The record behind these values is patent US20080293711A1 (priority 2007, published 2008).
